US7799809B2, “Carboxamide compounds and their use as calpain inhibitors” (Abbott GmbH & Co. KG, priority 2006, dated 2010)

Tests used:
Format in all cases: biochemical
cathepsin B = target: T1, cathepsin B (Homo sapiens, UniProt P07858); test: Cathepsin B enzyme inhibition in vitro (kinetic fluorescence assay); settings: cathepsin B isolated from human liver vs calpain I
T1 construct: cathepsin B—isolated from human liver (Calbiochem #219362); purchased Calbiochem 219362; host or cells: human liver (tissue-derived)
Method in brief: (§1)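 cat B 0.25 nM + Z-Phe-Arg-AMC 100 μM; cat L 1 nM + Z-Phe-Arg-AMC 2 μM; cat S 0.5 nM (E. coli-expressed) + Z-Val-Val-Arg-AMC 20 μM. 50 mM MES pH 6.0, 2.5 mM L-Cys, RT. Ex 390/em 460, kinetic; Ki app = Cheng-Prusoff from IC50, mean of 2–4 curves.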

cathepsin K = target: T2, cathepsin K (Homo sapiens, UniProt P43235); test: Cathepsin K enzyme inhibition in vitro (kinetic fluorescence assay); settings: cathepsin K activated from recombinant human procathepsin K vs calpain I
T2 construct: purchased Calbiochem 342001; host or cells: E. coli
T2 sequence (P43235 115-329): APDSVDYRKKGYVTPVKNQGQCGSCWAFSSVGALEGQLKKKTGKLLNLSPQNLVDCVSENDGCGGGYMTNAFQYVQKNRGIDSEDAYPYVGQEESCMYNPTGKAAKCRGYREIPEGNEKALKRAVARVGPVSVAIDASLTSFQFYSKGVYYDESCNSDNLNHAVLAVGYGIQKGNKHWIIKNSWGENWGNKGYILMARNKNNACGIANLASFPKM

cathepsin L = target: T3, cathepsin L (Homo sapiens, UniProt P07711); test: Cathepsin L enzyme inhibition in vitro (kinetic fluorescence assay); settings: cathepsin L isolated from human liver vs calpain I
T3 construct: cathepsin L—isolated from human liver (Calbiochem #219402); purchased Calbiochem 219402; host or cells: human liver (tissue-derived)
T3 sequence (P07711 114-333): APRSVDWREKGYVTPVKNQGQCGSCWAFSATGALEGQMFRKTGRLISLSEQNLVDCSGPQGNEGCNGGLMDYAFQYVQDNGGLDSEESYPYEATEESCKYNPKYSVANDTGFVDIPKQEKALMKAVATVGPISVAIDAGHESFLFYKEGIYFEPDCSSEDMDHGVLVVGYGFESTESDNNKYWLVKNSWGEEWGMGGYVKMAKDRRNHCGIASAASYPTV
Method in brief: as §1

cathepsin S = target: T4, cathepsin S (Homo sapiens, UniProt P25774); test: Cathepsin S enzyme inhibition in vitro (kinetic fluorescence assay); settings: recombinant human cathepsin S vs calpain I
T4 construct: purchased Calbiochem 219343; host or cells: E. coli
T4 sequence (P25774 115-331): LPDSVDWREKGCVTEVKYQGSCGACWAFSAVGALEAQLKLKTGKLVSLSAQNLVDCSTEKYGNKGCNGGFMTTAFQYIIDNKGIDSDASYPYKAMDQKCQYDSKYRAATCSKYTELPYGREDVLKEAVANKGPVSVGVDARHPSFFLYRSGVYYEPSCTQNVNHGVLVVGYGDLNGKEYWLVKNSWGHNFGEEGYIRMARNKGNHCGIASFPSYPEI
Method in brief: as §1

Molecule | Sel cat. B: Ki(cathepsin B)/Ki(calpain) ratio (cathepsin B) | Sel cat. K: Ki(cathepsin K)/Ki(calpain) ratio (cathepsin K) | Sel cat. L: Ki(cathepsin L)/Ki(calpain) ratio (cathepsin L) | Sel cat. S: Ki(cathepsin S)/Ki(calpain) ratio (cathepsin S)
NC(=O)C(=O)C(Cc1ccccc1)NC(=O)c1cccnc1-n1cc2c(n1)-c1cccc(Cl)c1OC2 (stereo not shown) [Example 175, N-[3-Amino-2,3-dioxo-1-(phenylmethyl)propyl]-2-(6-chlorochromeno[4,3-c]pyrazol-2(4H)-yl)pyridine-3-carboxamide] | ++ (++ means a Ki(cathepsin B)/Ki(calpain) ratio of ≧30) | ++ (++ means a Ki(cathepsin K)/Ki(calpain) ratio of ≧30) | ++ (++ means a Ki(cathepsin L)/Ki(calpain) ratio of ≧50) | ++ (++ means a Ki(cathepsin S)/Ki(calpain) ratio of ≧100)
COc1ccc2c(c1)-c1nn(-c3ncccc3C(=O)NC(Cc3ccccc3)C(=O)C(N)=O)cc1CO2 (stereo not shown) [Example 183, N-[3-Aamino-2,3-dioxo-1-(phenylmethyl)propyl]-2-[8-(methyloxy)chromeno[4,3-c]pyrazol-2(4H)-yl]pyridine-3-carboxamide] | + (+ means 10≦Ki(cathepsin B)/Ki(calpain)<30) | + (+ means 10≦Ki(cathepsin K)/Ki(calpain)<30) | ++ (++ means a Ki(cathepsin L)/Ki(calpain) ratio of ≧50) | ++ (++ means a Ki(cathepsin S)/Ki(calpain) ratio of ≧100)
NC(=O)C(=O)C(Cc1ccccc1)NC(=O)c1cccnc1-n1cc(Cl)c(-c2ccc(F)cc2)n1 (stereo not shown) [Example 184, N-[3-Amino-2,3-dioxo-1-(phenylmethyl)propyl]-2-[4-chloro-3-(4-fluorophenyl)-1H-pyrazol-1-yl]pyridine-3-carboxamide] | + (+ means 10≦Ki(cathepsin B)/Ki(calpain)<30) | + (+ means 10≦Ki(cathepsin K)/Ki(calpain)<30) | ++ (++ means a Ki(cathepsin L)/Ki(calpain) ratio of ≧50) | ++ (++ means a Ki(cathepsin S)/Ki(calpain) ratio of ≧100)
NC(=O)C(=O)C(Cc1ccccc1)NC(=O)c1cccnc1-n1ccc(C23CC4CC(CC(C4)C2)C3)n1 (stereo not shown) [Example 193, N-[3-Amino-2,3-dioxo-1-(phenylmethyl)propyl]-2-(3-tricyclo[3.3.1.1^3,7]dec-1-yl-1H-pyrazol-1-yl)pyridine-3-carboxamide] | ++ (++ means a Ki(cathepsin B)/Ki(calpain) ratio of ≧30) | ++ (++ means a Ki(cathepsin K)/Ki(calpain) ratio of ≧30) | ++ (++ means a Ki(cathepsin L)/Ki(calpain) ratio of ≧50) | ++ (++ means a Ki(cathepsin S)/Ki(calpain) ratio of ≧100)
N-(3-Amino-1-{[4-(methyloxy)phenyl]methyl}-2,3-dioxopropyl)-2-{3-[3-(trifluoromethyl)phenyl]-1H-pyrazol-1-yl}pyridine-3-carboxamide [Example 126] | ++ (++ means a Ki(cathepsin B)/Ki(calpain) ratio of ≧30) | ++ (++ means a Ki(cathepsin K)/Ki(calpain) ratio of ≧30) | ++ (++ means a Ki(cathepsin L)/Ki(calpain) ratio of ≧50) | ++ (++ means a Ki(cathepsin S)/Ki(calpain) ratio of ≧100)
N-[3-Amino-2,3-dioxo-1-(phenylmethyl)propyl]-2-[3-(3,5-dichlorophenyl)-1H-pyrazol-1-yl]pyridine-3-carboxamide [Example 89] | + (+ means 10≦Ki(cathepsin B)/Ki(calpain)<30) | + (+ means 10≦Ki(cathepsin K)/Ki(calpain)<30) | ++ (++ means a Ki(cathepsin L)/Ki(calpain) ratio of ≧50) | ++ (++ means a Ki(cathepsin S)/Ki(calpain) ratio of ≧100)
N-{3-Amino-1-[(4-fluorophenyl)methyl]-2,3-dioxopropyl}-2-[3-(2-chloro-3-fluorophenyl)-1H-pyrazol-1-yl]pyridine-3-carboxamide [Example 154] | ++ (++ means a Ki(cathepsin B)/Ki(calpain) ratio of ≧30) | ++ (++ means a Ki(cathepsin K)/Ki(calpain) ratio of ≧30) | ++ (++ means a Ki(cathepsin L)/Ki(calpain) ratio of ≧50) | ++ (++ means a Ki(cathepsin S)/Ki(calpain) ratio of ≧100)
